Data on seven molecules can be found in US8551456B2, “Combination therapy and methods for treating bacterial biofilms” (priority 2010, dated 2013).

The test system of series [1] is wild-type PAO1 isolates grown in biofilms. The following applies: cited from earlier work.
The test system of series [2] is P. aeruginosa PAO1 wild-type biofilms. The series is described as follows: CSLM of static biofilms with LIVE/DEAD BacLight viability assay. The class given is cell-based, Pseudomonas aeruginosa. Here is the method: (§1) P. aeruginosa PAO1 wild-type and isogenic pqsA mutant strain were obtained from Eb Pesci (East Carolina University School of Medicine). P. aeruginosa strains were grown aerobically with shaking in Minimal Salts medium (40 mM K2HPO4, 20 mM KH2PO4, 7.6 mM [NH4]2SO4, 0.2 mM MgSO4.7H2O, 9.2×10^−3 mMFeCl3.6H2O, 0.2% [wt/vol] glucose; adjusted pH 7.0) at 37° C. (4, 17). For static biofilms, P. aeruginosa strains were grown overnight in Minimal Salts medium at 37° C. with shaking. The following day, bacteria were diluted in fresh media to an OD590nm of 0.15. Five hundred microliters of the standardized culture was added to sterile polystyrene cuvettes and incubated statically for 24 h at 37° C. For examination of static biofilms using confocal laser scanning microscopy (CSLM), sterile microscope slides were submerged in standardized cell suspensions and incubated statically at 37° C. for 24 h.
(§2) Samples were irradiated for various exposure times at an intensity of 192 Joules/cm^2.
Negative control slides were transferred to 50 ml tubes containing only PBS. […] Bacterial viability was assessed in biofilm cultures using the LIVE/DEAD BacLight bacterial viability assay (Molecular Probes Inc., Eugene, Oreg.), containing SYTO9 and propidium iodide dyes. Biofilms were visualized with an Olympus FV1000 CSLM (Olympus America, Center Valley, Pa.) using a 60× oil immersion objective. Biofilm images were acquired in 0.4 μm optical sections for the entire thickness of the biofilm.
Bacterial viability was determined using the LIVE/DEAD BacLight Bacterial Viability assay. The cells in panels C-F show significant staining in red (considered dead) while cells in panels A, B, G and H show predominate staining in green (alive). […] The few remaining attached cells were nonviable.

For another series, the system named is pUCP18 plasmid DNA. Kind of series: TMP induced degradation of plasmid DNA, agarose gel electrophoresis. In kind it is biochemical. The following applies: 100 or 225 μM TMP. Here is the method: Plasmid DNA with and without TMP was irradiated for designated times. Prior to light exposure, samples of DNA supplemented with TMP were collected and incubated in the dark for comparison. DNA was examined using agarose gel electrophoresis.
The untreated control samples had the three expected forms of plasmid DNA: covalently closed circles, relaxed circular, and linear cut (FIG. 3: lanes 1 and 7). Plasmid DNA exposed to light only appeared similar to the control (FIG. 3: lanes 2 and 8).

In series [3] the test system is P. aeruginosa pqsA mutant biofilms. The class given is cell-based, Pseudomonas aeruginosa. Here is the method:
as §1, §2
Negative control slides were transferred to 50 ml tubes containing only PBS. […] Bacterial viability was assessed in biofilm cultures using the LIVE/DEAD BacLight bacterial viability assay (Molecular Probes Inc., Eugene, Oreg.), containing SYTO9 and propidium iodide dyes. […]
Bacterial viability was determined using the LIVE/DEAD BacLight Bacterial Viability assay.

The test system of series [4] is extracellular DNA in P. aeruginosa wild-type biofilms. Kind of series: Quantification of extracellular biofilm DNA with DNA stains such as Pico Green. The class given is cell-based, Pseudomonas aeruginosa. The following applies: data not shown, possible competition of TMP with Pico Green.
Another series has as its system S. aureus. The following applies: cited from earlier work.
For series [5], the system named is P. aeruginosa pqsA mutant biofilms. The series is described as follows: Viable plate counts of cells from static biofilms after TMP and irradiation. The conditions noted are these: 225 μM TMP, irradiated 10 min. The class given is cell-based, Pseudomonas aeruginosa. Here is the method:
as §1, §2
(§3) Static biofilms formed in sterile polystyrene cuvettes, as described above, were used to quantify cell survival. […] Cells released from the biofilm following treatment were collected from the supernatant by centrifugation and resuspended in PBS. The remaining attached biofilm was washed once and resuspended in PBS. The number of viable cells in the supernatant and attached biofilms following treatment were determined by plating on LB (1.5% agar) plates that were incubated for 24 h at 37° C.
(§4) Cells were collected from the supernatant of treated biofilms, as well as from the remaining attached biofilm. Cell suspensions were diluted and plated onto LB (1.5% agar) plates and incubated 24 h at 37° C. CFU were used to determine the surviving fraction. […] The recovered supernatants contained the cells sloughed off as the result of TPM exposure and irradiation.

The test system of series [6] is P. aeruginosa PAO1 wild-type biofilms. The description is as above. The class given is cell-based, Pseudomonas aeruginosa. The conditions noted are these: wild-type PAO1, 225 μM TMP, 10 min of irradiation. How it is done:
as §1, §2, §3, §4

Series [7] relates to P. aeruginosa PAO1 planktonic cell populations. The following applies: TMP 2.5 mg ml^−1; cited from earlier work.
Series [8] relates to P. aeruginosa wild-type PAO1 biofilms. Kind of series: Combined TMP and antibiotic treatment of biofilms in the dark, CSLM LIVE/DEAD. In kind it is cell-based, Pseudomonas aeruginosa. The following applies: for Effect on P. aeruginosa biofilm cells, TMP + Antibiotic, pH 7 / gain in killing by the addition of TMP to the antibiotic / red (dead) staining with antibiotic + TMP versus antibiotic alone (FIGS. 5A and 5B): TMP 225 μM 10 min then antibiotic 100 μg ml^−1 2 h. How it is done: Biofilms were grown on glass slides as described above. […] Slides were incubated in tobramycin for 2 h at 37° C. All incubations were performed in the dark. Cell viability within biofilms was assessed using the LIVE/DEAD BacLight bacterial viability kit and visualized with an Olympus FV1000 CSLM as described above.
Bacterial viability was determined using the LIVE/DEAD BacLight Bacterial Viability assay. The images show horizontal optical sections from the midpoint of the biofilms flanked by vertical optical sections in biofilms treated with panel A showing tobramycin alone and panel B showing TMP+tobramycin.
Using the same protocol used in Example 3 for tobramycin, additional antibiotics were tested to aid in the elucidation of the mechanism of bacterial biofilm disruption in the absence of photoactivation.
Bacterial viability was determined using the LIVE/DEAD BacLight Bacterial Viability assay. Cells staining red are considered dead while cells staining green are alive. […] In summary, panels C, E, G, I, K and M received the respective antibiotic alone, and panels B, D, F, H, J, L and N were treated with the combination of TMP and antibiotic.

Entries after “also recorded” stand apart in the source; their conditions may differ. Bounds are passed on as bounds.

For `C[n+]1ccc(-c2c3nc(c(-c4cc[n+](C)cc4)c4ccc([nH]4)c(-c4cc[n+](C)cc4)c4nc(c(-c5cc[n+](C)cc5)c5ccc2[nH]5)C=C4)C=C3)cc1.Cc1ccc(S(=O)(=O)[O-])cc1.Cc1ccc(S(=O)(=O)[O-])cc1.Cc1ccc(S(=O)(=O)[O-])cc1.Cc1ccc(S(=O)(=O)[O-])cc1` [TMP, 5,10,15,20-tetrakis(1-methyl-pyridino)-21H,23H-porphine, tetra-p-tosylate salt], in [1] (TMP 5.0 mg ml^−1, irradiated for 5 min), the “reduction of wild-type PAO1 isolates grown in biofilms” value is given as 1.2 log10. Besides, the “TMP concentration necessary to achieve the same level of killing in bacteria enmeshed within biofilms” value in series [1] (same level of killing as planktonic (>10^2 cfu ml^−1)) is 5.0 mg/mL. In series [2] (wild-type PAO1, 100 μM TMP, irradiated 10 min), the “biofilm density and cell viability (CSLM, LIVE/DEAD)” value is “decrease in biofilm density and the majority of cells within the biofilm were non-viable”. Besides, in series [2] (wild-type PAO1, 225 μM TMP, 10 min of irradiation), the “biofilm disruption and clearance (CSLM, LIVE/DEAD)” value was “nearly complete disruption and clearance; also recorded: completely disrupted with few cells remaining attached”. In series [2] (wild-type PAO1, 225 μM TMP, dark), the “biofilm structure and cell viability without photoactivation (dark toxicity)” value is listed as “expanded in volume without a loss of cell viability; also recorded: no dark toxicity; also recorded: did not lead to clearance of wild-type biofilms”. For the same molecule, in the series on pUCP18 plasmid DNA (irradiation for 5 or 30 min), the “degradation of plasmid DNA” value was “complete degradation”. In the series on pUCP18 plasmid DNA (nonirradiated), the “migration of plasmid DNA in gel without photoactivation” value is given as “retarded migration of DNA; also recorded: migration was retarded”. Further, in series [3] (225 μM TMP, dark), the “cell viability and biofilm architecture without photoactivation” value is given as “did not affect cell viability or disrupt the architecture”. Besides, in series [3] (100 or 225 μM TMP, irradiated 10 min), the “cell viability of attached cells (CSLM, LIVE/DEAD)” value is listed as “decrease in cell viability of attached cells; also recorded: high levels of killing”. The “biofilm DNA after TMP and light” value in series [4] (TMP and light) is on record as “decrease was observed in biofilm DNA”. Also, the “biofilm DNA after TMP in the absence of light” value in [4] (TMP, no light) was “decrease in biofilm DNA”. Further, the S. aureus survival entry in the series with S. aureus (TMP alone) is given as “reduce S. aureus survival”. Also, in the series on S. aureus (TMP combined with vancomycin), the “effect on established S. aureus biofilms” value is “disrupt established biofilms”. For the same molecule, in the series with human fibroblasts, the “toxicity to human fibroblasts” value was “does not appear to be toxic to human fibroblasts”. Moreover, the “decrease in cell viability of attached cells” value in series [5] (attached cells) came to 3.9 log10. For the same molecule, in series [5] (supernatant cells), the “reduction in cell viability of cells collected from supernatants” value is recorded as 4.2 log10. Besides, the “decrease in viable cells in the attached biofilm population” value in series [6] (attached cells) turned out to be 4.1 log10. Moreover, the “reduction in the number of viable cells in the recovered supernatants” value in [6] (supernatant cells) was found to be 4.5 log10. For the same molecule, in series [7], the “reduction of planktonic cell populations” value is listed as > 10^2 cfu ml^−1.
As to `NC[C@H]1O[C@H](O[C@H]2[C@H](O)[C@@H](O[C@H]3O[C@H](CO)[C@@H](O)[C@H](N)[C@H]3O)[C@H](N)C[C@@H]2N)[C@H](O)[C@@H](O)[C@@H]1O` [kanamycin], in series [8] (dark), the “Effect on P. aeruginosa biofilm cells, TMP + Antibiotic, pH 7” value (“Effect on P. aeruginosa biofilm cells” for short) is listed as “+”.
As to `NC[C@H]1O[C@H](O[C@H]2[C@H](O)[C@@H](O[C@H]3O[C@H](CO)[C@@H](O)[C@H](N)[C@H]3O)[C@H](N)C[C@@H]2N)[C@H](N)C[C@@H]1O` [tobramycin], the “cell viability and biofilm clearance, TMP then antibiotic” value in series [8] (TMP 225 μM 10 min then tobramycin 100 μg ml^−1 2 h, dark) is “predominate amount of cells staining red (dead); also recorded: substantial clearance of the biofilms and greater loss of cell viability throughout the biofilms than with either single treatment; also recorded: significant biofilm clearance and enhanced killing of cells”. Also, the “effect of pH on the combination of tobramycin and TMP” value in series [8] (dark conditions, pH range of 4.0 to 8.0) is listed as “enhancement of killing”. For the same molecule, the “cell viability and biofilm clearance, antibiotic alone” value in series [8] (tobramycin alone 100 μg ml^−1, 2 h, dark, no TMP) was “cells predominately staining green (alive); also recorded: reduction in cell viability which was limited to cells near the surface of the biofilms; also recorded: did not result in substantial biofilm clearance and led to minimal killing of biofilm associated cells”.
On to `CN[C@H](CC(C)C)C(=O)N[C@H]1C(=O)N[C@@H](CC(N)=O)C(=O)N[C@H]2C(=O)N[C@H]3C(=O)N[C@H](C(=O)N[C@H](C(=O)O)c4cc(O)cc(O)c4-c4cc3ccc4O)[C@H](O)c3ccc(c(Cl)c3)Oc3cc2cc(c3O[C@@H]2O[C@H](CO)[C@@H](O)[C@H](O)[C@H]2O[C@H]2C[C@](C)(N)[C@H](O)[C@H](C)O2)Oc2ccc(cc2Cl)[C@H]1O` [vancomycin], for which, in [8] (dark), the “gain in killing by the addition of TMP to the antibiotic” value (from here on “gain in killing by the addition of TMP”) is listed as “substantially enhanced killing”; the “red (dead) staining with antibiotic + TMP versus antibiotic alone (FIGS. 5A and 5B)” value is “predominately red staining”.
Regarding `CC1(C)S[C@@H]2[C@H](NC(=O)C(C(=O)O)c3ccccc3)C(=O)N2[C@H]1C(=O)O` (stereo partly drawn) [carbenicillin], in series [8] (dark), the “gain in killing by the addition of TMP” value is given as “no enhanced killing”; the “red (dead) staining with antibiotic + TMP versus antibiotic alone (FIGS. 5A and 5B)” value is on record as “little or no increase in red staining”; the “Effect on P. aeruginosa biofilm cells” value was “−”.
Take `O=C(O)c1cn(C2CC2)c2cc(N3CCNCC3)c(F)cc2c1=O` [Ciprofloxacin]: in [8] (dark), the “gain in killing by the addition of TMP” value is “no gain in killing”; the “red (dead) staining with antibiotic + TMP versus antibiotic alone (FIGS. 5A and 5B)” value is “little or no increase in red staining”; the “Effect on P. aeruginosa biofilm cells” value is on record as “+”.
Turning to gentamicin, in [8] (dark), the “gain in killing by the addition of TMP” value is listed as “behaved similarly to tobramycin”; the “red (dead) staining with antibiotic + TMP versus antibiotic alone (FIGS. 5A and 5B)” value was “significant increased red staining”.
